Reference: paper PMC6006164, “Natural cyclopeptide RA-V inhibits the NF-κB signaling pathway by targeting TAK1” (Cell Death & Disease, 2018)

Assays:
RAW264.7 cells = assay: LPS-induced NF-κB activation in RAW264.7 cells; assay type: cell-based; settings: 1 μg/mL LPS 3 h, dose-dependent
Description: Fig. 1 RA-V inhibits TNF-α- and LPS-induced activation of NF-κB. a Chemical structure of RA-V. b RA-V inhibited the NF-κB signaling pathway in a dose-dependent manner. HEK293T or HeLa cells were transfected with the 5 × κB-luciferase and pTK-Renilla reporters. Twenty-four hours after transfection, the cells were incubated with various concentrations of RA-V for 6 h, and then treated with 10 ng/mL TNF-α for 2 h before the luciferase activity assay and MTT assay. c RA-V reduced TNF-α-induced expression of NF-κB target genes. HEK293T or HeLa cells were treated with various concentrations of RA-V for 24 h and stimulated with 10 ng/mL TNF-α for 2 h. The expression of the NF-κB target genes, IL-8, MCP-1, and E-selectin was measured by quantitative RT-PCR and normalized to GADPH expression. d RA-V inhibited TNF-α-induced p65 phosphorylation, IκBα phosphorylation and IκBα degradation. HEK293T or HeLa cells were incubated with various concentrations of RA-V for 24 h and treated with 10 ng/mL TNF-α for 10 min. The cell lysates were prepared and subjected to western blot analysis with the indicated antibodies. e RA-V inhibited TNF-α-induced IL-8 production. […] The expression of IL-6 was measured. h RA-V inhibited LPS-induced p65 phosphorylation, IκBα phosphorylation. […] The protein expression was measured. i RA-V inhibited LPS-induced IL-6 production. […] The expression of IL-6 was measured.

NF-κB signaling pathway = assay: NF-κB-dependent luciferase reporter (5×κB-luciferase/pTK-Renilla), TNF-α-induced, HEK293T cells; assay type: cell-based; settings: HEK293T; RA-V 6 h, then 10 ng/mL TNF-α 2 h; three independent experiments; read-out: IC50, NF-κB-dependent luciferase reporter
Description: HEK293T or HeLa cells were seeded in 24-well plates and transiently transfected with the 5 × κB-luciferase and pTK-Renilla reporters using Lipofectamine 2000 (Invitrogen) for 18 h. The cells were then incubated with different concentrations of the compounds for the indicated times and subsequently stimulated with 10 ng/mL TNF-α for 2 h. The luciferase activity in the cell lysates was analyzed using the Dual Luciferase Reporter Assay System (Promega). The luciferase reporter assays were performed as previously described.
Supplementary Figure 1. RA-V has the best inhibitory effect on NF-κB signaling pathway among RAs. (a-b) HEK293T cells were transfected with the 5×κB-luciferase and pTK-Renilla reporters. Twenty-four hours after transfection, the cells were incubated with various concentrations of the indicated compounds for 6 h and then treated with 10 ng/ml TNF-α for 2 h before the luciferase activity assays. The data are presented as the means ± S.D. from three independent experiments. […]
Scheme for CB12 synthesis. (c) CB12 inhibited NF-κB reporter activity in a dose-dependent manner. The HEK293T cells were transfected with the 5×κB-luciferase and pTK-Renilla reporters. Twenty-four h after transfection, the cells were treated with various concentrations of CB12 for 6 h and then treated with 10 ng/ml TNF-α for 2 h before the luciferase activity assays. (d) […]
Supplementary Table 3: Screening data of small molecules
Category Parameter Description
Assay Type of assay Cell-based
Target NF-κB signaling pathway
Primary measurement Detection of Firefly luciferase enzyme activities and Renilla Luciferase expression
Key reagents 5 × κB-lucieferase and luciferase assay (Progema)
Assay protocol HEK293T cells were seeded in 24 -well plates and transiently transfected with 20 ng of 5×κB-luciferase and 2 ng of pTK-Renilla reporters using Lipofectamine
2000 (Invitrogen) for 18 h. The cells were then incubated with small molecules (10 μM) for 6 hours, and subsequently stimulated with 10 ng/ml TNF -α for 2 h. Luciferase activity of the cell lysates was analysed by the Dual Luciferase Reported Assay System
(Promega). The Firefly luciferase enzyme activities were determined for NF -κB signaling activities and normalized to Renilla Luciferase expression.
Library Library size approximately 200
Library composition natural and synthetic chemical compounds, including cyclopeptides, quinones and terpenes.
Source State Key Laboratory of Phytochemistry and Plant
Resources in West China, Kunming Institute of Botany, Chinese Academy of Sciences
Screen Format 24-well, Corning
Concentration(s) tested 10 μM
Reagent/ compound dispensing system Manual
Detection instrument and software Synergy 2 (BioTek)
Assay validation/QC Velcade inhibits NF-κB signaling pathway
Normalization The Firefly luciferase enzyme activities were normalized by Renilla Luciferase expression
Post-HTS analysis Hit criteria κB-luc/ Renilla ratio < 0.5 standard deviations from the […]
Hit rate Approximately 15%
Confirmation of hit purity and structure Compounds were verified by HPLC and NMR

TAK1 = target: T1, TAK1 (Homo sapiens, UniProt O43318); assay: Streptavidin agarose pull-down with biotin-tagged probe CB12; assay type: binding; settings: lysates of HEK293T transfected with TAK1; RA-V in 10-fold excess
T1 construct: expressed in transfected cells; host or cells: HEK293T
T1 sequence (O43318 1-579 isoform O43318-2): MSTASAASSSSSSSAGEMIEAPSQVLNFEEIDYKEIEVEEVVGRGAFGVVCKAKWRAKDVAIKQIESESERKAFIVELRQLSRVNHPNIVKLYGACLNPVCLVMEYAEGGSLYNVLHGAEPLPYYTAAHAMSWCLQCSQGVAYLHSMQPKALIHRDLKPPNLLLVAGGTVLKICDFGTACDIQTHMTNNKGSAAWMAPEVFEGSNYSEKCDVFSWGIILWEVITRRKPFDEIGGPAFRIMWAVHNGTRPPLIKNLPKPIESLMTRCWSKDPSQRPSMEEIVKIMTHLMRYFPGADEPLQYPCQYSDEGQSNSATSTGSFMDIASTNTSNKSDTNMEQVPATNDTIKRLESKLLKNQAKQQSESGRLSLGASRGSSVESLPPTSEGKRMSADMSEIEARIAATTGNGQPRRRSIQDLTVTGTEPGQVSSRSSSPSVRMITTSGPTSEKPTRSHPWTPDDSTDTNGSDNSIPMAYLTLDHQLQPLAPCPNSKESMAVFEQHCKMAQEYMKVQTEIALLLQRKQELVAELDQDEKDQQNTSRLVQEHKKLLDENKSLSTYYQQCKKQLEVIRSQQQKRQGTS
Description: HEK293T cells were transfected with TAK1 for 24 h, then the cell lysates were incubated with biotin or CB12 followed by streptavidin agarose pull-down. […] HEK293T cells were transfected with the indicated plasmids for 24 h. The cell lysates were pulled down with streptavidin agarose and then immunoblotted with HA or Flag antibody. Each experiment was repeated at least three times
HEK293T cells were transfected with TAK1-N or TAK1-C for 24 h. The cells lysates were incubated with CB12 or biotin and precipitated with streptavidin-coated sepharose and were analyzed by immunoblotting with Flag antibody. b The model for RA-V binding to the crystal structure of the TAK1–TAB1 fusion protein (PDB 4GS6). […] HEK293T cells were transfected with TAK1 for 24 h, and then the cell lysates were incubated with biotin or CB12 before precipitation with streptavidin agarose. […] HeLa cells were incubated with various concentrations of RA-V for 12 h and then treated with 10 ng/mL TNF-α for 10 min. The cell lysates were prepared and western blotted with the indicated antibodies. Each experiment was repeated at least three times
HEK293T cells were harvested and lysed in RIPA buffer with protease inhibitors. […] The samples were separated by SDS-PAGE, and the bound proteins were detected using the indicated antibodies.

RA-V
LPS-induced IL-6 production, IκBα phosphorylation and p65 phosphorylation (RAW264.7 cells): inhibited | IC50 (NF-κB signaling pathway): 0.0646 µM | competition with the CB12–TAK1 interaction (pull-down) (TAK1): competed away
